Measurements from ChEMBL document CHEMBL4673225, “Highly Selective PTK2 Proteolysis Targeting Chimeras to Probe Focal Adhesion Kinase Scaffolding Functions” (J Med Chem, 2019).

Experiments:
[1] = target: T1, von Hippel-Lindau disease tumor suppressor/Focal adhesion kinase 1 (Homo sapiens, UniProt Q05397+P40337); experiment: Protac activity at VHL/PTK2 in human SNU-398 cells assessed as induction of PTK2 degradation incubated for 18 hrs by protein capillary electrophoresis method relative to control; type: cell-based
Target sequence in this assay (P40337 whole entry partner): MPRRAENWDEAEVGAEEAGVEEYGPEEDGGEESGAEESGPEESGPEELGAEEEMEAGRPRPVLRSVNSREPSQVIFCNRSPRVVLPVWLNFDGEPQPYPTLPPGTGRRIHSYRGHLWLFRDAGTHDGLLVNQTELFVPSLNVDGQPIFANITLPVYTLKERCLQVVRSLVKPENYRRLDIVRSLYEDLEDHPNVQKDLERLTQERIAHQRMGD
Target sequence in this assay (Q05397 2-1052 limits assumed): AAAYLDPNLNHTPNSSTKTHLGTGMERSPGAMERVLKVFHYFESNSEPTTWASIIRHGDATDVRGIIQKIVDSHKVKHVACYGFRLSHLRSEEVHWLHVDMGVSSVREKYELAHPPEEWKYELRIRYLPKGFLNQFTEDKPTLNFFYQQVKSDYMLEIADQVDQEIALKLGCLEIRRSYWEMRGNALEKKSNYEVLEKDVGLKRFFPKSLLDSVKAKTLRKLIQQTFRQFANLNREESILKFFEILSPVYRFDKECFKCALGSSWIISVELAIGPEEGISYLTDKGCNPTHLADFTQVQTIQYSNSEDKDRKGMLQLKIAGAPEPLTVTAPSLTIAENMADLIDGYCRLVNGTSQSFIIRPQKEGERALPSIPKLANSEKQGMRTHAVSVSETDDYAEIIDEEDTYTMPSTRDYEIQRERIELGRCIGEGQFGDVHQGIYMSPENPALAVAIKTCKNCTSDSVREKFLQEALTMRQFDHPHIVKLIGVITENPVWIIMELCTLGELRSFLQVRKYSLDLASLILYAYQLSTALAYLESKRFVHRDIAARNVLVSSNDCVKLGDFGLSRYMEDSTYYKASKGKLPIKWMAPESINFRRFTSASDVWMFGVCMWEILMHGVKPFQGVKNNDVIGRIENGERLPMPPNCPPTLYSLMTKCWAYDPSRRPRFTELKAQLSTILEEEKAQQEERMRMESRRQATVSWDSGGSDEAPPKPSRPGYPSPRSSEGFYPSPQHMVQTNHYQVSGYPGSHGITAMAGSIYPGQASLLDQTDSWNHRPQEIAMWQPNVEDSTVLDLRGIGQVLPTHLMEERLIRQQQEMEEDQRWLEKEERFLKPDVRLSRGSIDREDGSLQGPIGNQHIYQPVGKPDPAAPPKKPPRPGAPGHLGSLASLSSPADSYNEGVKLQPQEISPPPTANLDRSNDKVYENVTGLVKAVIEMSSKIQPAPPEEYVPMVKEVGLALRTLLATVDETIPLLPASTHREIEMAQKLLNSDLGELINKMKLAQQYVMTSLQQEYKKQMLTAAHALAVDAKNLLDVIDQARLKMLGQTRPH

[2] = target: T1, von Hippel-Lindau disease tumor suppressor/Focal adhesion kinase 1; experiment: Protac activity at VHL/PTK2 in human SK-HEP1 cells assessed as induction of PTK2 degradation incubated for 18 hrs by protein capillary electrophoresis method relative to control; type: cell-based
Target sequence in this assay (P40337 whole entry partner): as the sequence (P40337 whole entry partner) above
Target sequence in this assay (Q05397 2-1052 limits assumed): as the sequence (Q05397 2-1052 limits assumed) above

[3] = target: T1, von Hippel-Lindau disease tumor suppressor/Focal adhesion kinase 1; experiment: Protac activity at VHL/PTK2 in human HepG2 cells assessed as induction of PTK2 degradation incubated for 18 hrs by protein capillary electrophoresis method relative to control; type: cell-based
Target sequence in this assay (P40337 whole entry partner): as the sequence (P40337 whole entry partner) above
Target sequence in this assay (Q05397 2-1052 limits assumed): as the sequence (Q05397 2-1052 limits assumed) above

[4] = target: T1, von Hippel-Lindau disease tumor suppressor/Focal adhesion kinase 1; experiment: Protac activity at VHL/PTK2 in human HuH-1 cells assessed as induction of PTK2 degradation incubated for 18 hrs by protein capillary electrophoresis method relative to control; type: cell-based
Target sequence in this assay (P40337 whole entry partner): as the sequence (P40337 whole entry partner) above
Target sequence in this assay (Q05397 2-1052 limits assumed): as the sequence (Q05397 2-1052 limits assumed) above

[5] = target: T1, von Hippel-Lindau disease tumor suppressor/Focal adhesion kinase 1; experiment: Protac activity at VHL/PTK2 in human SNU-387 cells assessed as induction of PTK2 degradation incubated for 18 hrs by protein capillary electrophoresis method relative to control; type: cell-based
Target sequence in this assay (P40337 whole entry partner): as the sequence (P40337 whole entry partner) above
Target sequence in this assay (Q05397 2-1052 limits assumed): as the sequence (Q05397 2-1052 limits assumed) above

[6] = target: T1, von Hippel-Lindau disease tumor suppressor/Focal adhesion kinase 1; experiment: Protac activity at VHL/PTK2 in human HLE cells assessed as induction of PTK2 degradation incubated for 18 hrs by protein capillary electrophoresis method; type: cell-based
Target sequence in this assay (Q05397 whole entry): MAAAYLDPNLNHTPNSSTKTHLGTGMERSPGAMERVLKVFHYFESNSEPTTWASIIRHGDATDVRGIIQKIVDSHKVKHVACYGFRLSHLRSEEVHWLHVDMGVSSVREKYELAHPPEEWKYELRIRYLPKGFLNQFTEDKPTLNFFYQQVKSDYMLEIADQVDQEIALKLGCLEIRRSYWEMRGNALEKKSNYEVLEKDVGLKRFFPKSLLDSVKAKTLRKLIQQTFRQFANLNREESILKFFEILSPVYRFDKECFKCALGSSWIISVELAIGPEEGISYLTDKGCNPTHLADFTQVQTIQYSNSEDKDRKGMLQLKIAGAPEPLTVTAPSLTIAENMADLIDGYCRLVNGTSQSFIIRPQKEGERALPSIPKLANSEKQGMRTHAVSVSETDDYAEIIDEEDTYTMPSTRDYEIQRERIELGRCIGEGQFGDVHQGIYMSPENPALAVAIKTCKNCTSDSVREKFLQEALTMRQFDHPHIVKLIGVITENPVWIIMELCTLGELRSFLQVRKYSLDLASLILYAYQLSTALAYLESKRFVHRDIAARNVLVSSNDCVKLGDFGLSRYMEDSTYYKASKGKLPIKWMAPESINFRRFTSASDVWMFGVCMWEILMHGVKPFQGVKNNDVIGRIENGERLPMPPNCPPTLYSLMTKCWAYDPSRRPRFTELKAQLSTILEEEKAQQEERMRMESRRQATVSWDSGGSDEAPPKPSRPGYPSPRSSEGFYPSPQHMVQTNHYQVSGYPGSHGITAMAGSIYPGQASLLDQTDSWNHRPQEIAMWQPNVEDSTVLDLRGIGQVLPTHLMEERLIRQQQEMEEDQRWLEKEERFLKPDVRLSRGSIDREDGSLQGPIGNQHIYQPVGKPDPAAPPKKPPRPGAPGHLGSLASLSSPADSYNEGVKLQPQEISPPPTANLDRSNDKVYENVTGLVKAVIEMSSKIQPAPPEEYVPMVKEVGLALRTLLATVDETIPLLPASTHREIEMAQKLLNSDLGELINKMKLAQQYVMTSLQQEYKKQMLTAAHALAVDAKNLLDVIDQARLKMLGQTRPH
Target sequence in this assay (P40337 whole entry): as the sequence (P40337 whole entry partner) above

[7] = target: T1, von Hippel-Lindau disease tumor suppressor/Focal adhesion kinase 1; experiment: Protac activity at VHL/PTK2 in human HLF1 cells assessed as induction of PTK2 degradation incubated for 18 hrs by protein capillary electrophoresis method; type: cell-based
Target sequence in this assay (Q05397 whole entry): as the sequence (Q05397 whole entry) above
Target sequence in this assay (P40337 whole entry): as the sequence (P40337 whole entry partner) above

[8] = target: T1, von Hippel-Lindau disease tumor suppressor/Focal adhesion kinase 1; experiment: Protac activity at VHL/PTK2 in human SNU-387 cells assessed as induction of PTK2 degradation incubated for 18 hrs by protein capillary electrophoresis method; type: cell-based
Target sequence in this assay (Q05397 whole entry): as the sequence (Q05397 whole entry) above
Target sequence in this assay (P40337 whole entry): as the sequence (P40337 whole entry partner) above

[9] = target: Tyrosine-protein kinase Fes/Fps (Homo sapiens) (UniProt P07332); experiment: Inhibition of FES (unknown origin) at 1 uM relative to control
[10] = target: T2, Protein cereblon/Focal adhesion kinase 1 (Homo sapiens, UniProt Q05397+Q96SW2); experiment: Protac activity at CRBN/PTK2 in human HLF1 cells assessed as induction of PTK2 degradation incubated for 18 hrs by protein capillary electrophoresis method relative to control; type: cell-based
Target sequence in this assay (Q05397 2-1052 limits assumed): as the sequence (Q05397 2-1052 limits assumed) above
Target sequence in this assay (Q96SW2 whole entry partner): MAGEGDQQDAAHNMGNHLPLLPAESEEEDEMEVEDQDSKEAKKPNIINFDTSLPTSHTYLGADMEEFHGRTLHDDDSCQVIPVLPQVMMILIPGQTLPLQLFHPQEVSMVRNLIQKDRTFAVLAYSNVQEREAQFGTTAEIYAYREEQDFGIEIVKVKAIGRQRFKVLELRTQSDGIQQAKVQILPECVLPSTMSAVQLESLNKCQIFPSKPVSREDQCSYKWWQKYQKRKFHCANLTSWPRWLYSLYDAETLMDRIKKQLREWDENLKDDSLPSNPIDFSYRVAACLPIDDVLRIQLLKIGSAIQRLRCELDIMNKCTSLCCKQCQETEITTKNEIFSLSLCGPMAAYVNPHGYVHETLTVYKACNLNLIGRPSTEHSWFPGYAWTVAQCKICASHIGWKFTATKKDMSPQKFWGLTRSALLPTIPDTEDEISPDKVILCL

[11] = target: T2, Protein cereblon/Focal adhesion kinase 1; experiment: Protac activity at CRBN/PTK2 in human Huh-7 cells assessed as induction of PTK2 degradation incubated for 18 hrs by protein capillary electrophoresis method; type: cell-based
[12] = target: T2, Protein cereblon/Focal adhesion kinase 1; experiment: Protac activity at CRBN/PTK2 in human HLE cells assessed as induction of PTK2 degradation incubated for 18 hrs by protein capillary electrophoresis method; type: cell-based
[13] = target: T2, Protein cereblon/Focal adhesion kinase 1; experiment: Protac activity at CRBN/PTK2 in human HLF1 cells assessed as induction of PTK2 degradation incubated for 18 hrs by protein capillary electrophoresis method; type: cell-based
[14] = target: T2, Protein cereblon/Focal adhesion kinase 1; experiment: Protac activity at CRBN/PTK2 in human SK-HEP1 cells assessed as induction of PTK2 degradation incubated for 18 hrs by protein capillary electrophoresis method; type: cell-based
[15] = target: T2, Protein cereblon/Focal adhesion kinase 1; experiment: Protac activity at CRBN/PTK2 in human HuH-1 cells assessed as induction of PTK2 degradation incubated for 18 hrs by protein capillary electrophoresis method; type: cell-based
[16] = target: T2, Protein cereblon/Focal adhesion kinase 1; experiment: Protac activity at CRBN/PTK2 in human SNU-387 cells assessed as induction of PTK2 degradation incubated for 18 hrs by protein capillary electrophoresis method; type: cell-based
[17] = target: T2, Protein cereblon/Focal adhesion kinase 1; experiment: Protac activity at CRBN/PTK2 in human A549 cells assessed as time required for maximal induction of PTK2 degradation at 3 uM by protein capillary electrophoresis method; type: cell-based
Target sequence in this assay (Q05397 2-1052 limits assumed): as the sequence (Q05397 2-1052 limits assumed) above
Target sequence in this assay (Q96SW2 whole entry partner): as the sequence (Q96SW2 whole entry partner) above

[18] = Stability in DMSO as solid form; type: physicochemical
[19] = target: T2, Protein cereblon/Focal adhesion kinase 1; experiment: Protac activity at CRBN/PTK2 in human Hep3B2.1-7 cells assessed as induction of PTK2 degradation incubated for 18 hrs by protein capillary electrophoresis method relative to control; type: cell-based; conditions: Hep3B
Target sequence in this assay (Q05397 2-1052 limits assumed): as the sequence (Q05397 2-1052 limits assumed) above
Target sequence in this assay (Q96SW2 whole entry partner): as the sequence (Q96SW2 whole entry partner) above

[20] = target: T2, Protein cereblon/Focal adhesion kinase 1; experiment: Protac activity at CRBN/PTK2 in human Hep3B2.1-7 cells assessed as induction of PTK2 degradation incubated for 18 hrs by protein capillary electrophoresis method; type: cell-based; conditions: hep3b

Row | Structure (SMILES) | Emax [1] [%] | Emax [2] [%] | Emax [3] [%] | Emax [4] [%] | Emax [5] [%] | pDC50 [6] | pDC50 [7] | pDC50 [8] | inhibition [9] [%] | Emax [10] [%] | pDC50 [11] | pDC50 [12] | pDC50 [13] | pDC50 [14] | pDC50 [15] | pDC50 [16] | TIME [17] [h] | Stabilty [18] [months] | Emax [19] [%] | pDC50 [20]
1 | COc1cc(C(=O)NCCOCCOCCOCC(=O)N[C@H](C(=O)N2C[C@H](O)C[C@H]2C(=O)NCc2ccc(-c3scnc3C)cc2)C(C)(C)C)ccc1Nc1ncc(C(F)(F)F)c(Oc2cccc3c2C(=O)CC3)n1 | 99 | 87 | 65 | 79 | 98 | 7.6 | 7.4 | 7.5 | > 90 |  |  |  |  |  |  |  |  |  |  | 
2 | COc1cc(C(=O)NCCOCCOCCOCCC(=O)Nc2cccc3c2C(=O)N(C2CCC(=O)NC2=O)C3=O)ccc1Nc1ncc(C(F)(F)F)c(Oc2cccc3c2C(=O)CC3)n1 (stereo not given) |  |  |  |  |  |  |  |  |  | 30 | 7.3 | 6.8 | 6.4 | 7.5 | 6.6 | 7.6 | 18 | > 3 | 96 | 7.9
